According to PubChem BioAssay AID1645864 (Buhrlage Lab, Dana-Farber Cancer Institute and Novartis …, 2021):
Calls of active or inactive are those of the source.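 The calls were made as follows: active = maximal inhibition of USP17 at or above 30% in the confirmation dose-response, a value not among the printed readouts; inactive = the rest.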

Molecular target: Ubiquitin carboxyl-terminal hydrolase 17-like protein 5 (Homo sapiens) (UniProt A8MUK1)
Assay: ubiquitin-specific protease 17 inhibitors, concentration series, biochemical, verification of primary actives (AID 1645864)
Conditions: purified USP17, ubiquitin-rhodamine cleavage fluorescence, 3 h

Sequence of Ubiquitin carboxyl-terminal hydrolase 17-like protein 5 (Homo sapiens) (A8MUK1 whole entry, looked up): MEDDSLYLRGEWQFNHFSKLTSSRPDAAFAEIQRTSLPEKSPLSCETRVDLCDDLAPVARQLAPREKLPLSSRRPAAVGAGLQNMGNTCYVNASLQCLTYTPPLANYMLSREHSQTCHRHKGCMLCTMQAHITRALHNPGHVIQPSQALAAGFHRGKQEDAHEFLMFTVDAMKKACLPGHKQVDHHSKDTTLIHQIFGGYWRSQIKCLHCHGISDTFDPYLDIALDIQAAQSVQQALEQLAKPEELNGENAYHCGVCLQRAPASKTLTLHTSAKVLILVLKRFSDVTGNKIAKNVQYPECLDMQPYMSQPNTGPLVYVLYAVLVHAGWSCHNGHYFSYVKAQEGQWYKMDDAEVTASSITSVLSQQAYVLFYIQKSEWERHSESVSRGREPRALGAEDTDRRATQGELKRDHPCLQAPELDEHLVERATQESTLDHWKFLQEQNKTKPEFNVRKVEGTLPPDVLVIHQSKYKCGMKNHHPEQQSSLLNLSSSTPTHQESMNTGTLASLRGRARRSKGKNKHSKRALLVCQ

Compound | IC50
O=C(CSc1ncnc2c1sc1cccc(F)c12)N1CCCCCC1 | > 50 µM (inactive)
O=C(CC1Oc2ccccc2NC1=O)Nc1ccccc1Br (stereo not given) | 33.4 µM
CC(C)N1CC[C@@H]2[C@H](C1)CN2C(=O)Nc1cccc(F)c1 | > 50 µM (inactive)
CC(=O)Nc1ccc(S(=O)(=O)NCc2ccc(C(=O)NCCc3ccc(Cl)cc3)cc2)cc1 | 2.31 µM
COc1ccc(NC(=O)C2c3ccccc3C(=O)N(C3CCCC3)C2c2cccs2)cc1OC (stereo not given) | 47.1 µM
O=C(c1ccc(Cl)cc1)c1c[nH]cc1-c1c(F)cccc1Cl | 36.3 µM
CC(C)CC1NC(=O)C2CCCN2C1=O (stereo not given) | 37.5 µM
CCOc1ccc(NC(=O)COc2cccc3c2CCN(CC)C3=O)cc1 | > 50 µM (inactive)
O=C(Nc1ccc(Br)cn1)c1nc2ccccc2nc1N1CCCCC1 | > 50 µM (inactive)
O=C(CSc1nnc(CNC(=O)c2ccccc2F)o1)Nc1ccc(OC(F)(F)F)cc1 | 33 µM
Cc1ccc(-c2cnc(C3CC3)o2)cc1S(=O)(=O)Nc1ccc(F)c(Cl)c1 | 38.1 µM
N#Cc1ccc(-c2ccc(OCC(=O)Nc3ccc4c(c3)OCO4)cc2)cc1 | 2.48 µM
O=C(Oc1ccc(-c2cnc3ccccc3n2)cc1)c1ccc(F)cc1 | 6.4 µM
COc1ccc(CNC(=O)CN2C(=O)C(C)=C(c3ccc(C)cc3)S2(=O)=O)cc1 | > 50 µM (inactive)
O=C(CSc1nc2cc(C(F)(F)F)ccc2s1)NCC(=O)c1ccccc1 | 1.86 µM
COc1cccc2cc(C(=O)Nc3nc(-c4ccncc4)cs3)oc12 | 0.17 µM
Cc1cccc(Cl)c1NC(=O)Nc1ccc(NC(=O)c2ccccc2O)cc1 | 35.4 µM
O=c1c2cnc3nc(-c4cccnc4)nn3c2ccn1CCc1ccccc1 | > 50 µM (inactive)
O=C(Nc1ncc2c(n1)-c1ccccc1CC2)C1CC1 | 20.9 µM
O=C(CN1CCCc2ccccc21)Nc1ccc(N2CCOCC2)cc1 | > 50 µM (inactive)
O=C(Nc1cc(F)c2nc(N3CCOCC3)ccc2c1)C1CC1 | 7.47 µM
COc1ccc(CCNC(=O)c2ccc3ccccc3c2)cc1OC | > 50 µM (inactive)
CCCC[C@@H](C)/C=C(C)/C=C(\C)C(=O)NC1=C[C@](O)(/C=C/C=C/C=C/C(=O)NC2=C(O)CCC2=O)[C@@H]2O[C@@H]2C1=O | 3.1 µM
COc1ccc(OC)c(NC(=O)c2cc(Cl)ccc2OC)c1 | 2.53 µM

Compound | IC50
O=C(Nc1cccc(N2CCCC2=O)c1)c1cccc2cccnc12 | 21.9 µM
COc1ccc(CCNC(=O)c2noc3c2CCc2sccc2-3)cc1OC | 22 µM
Cc1ccccc1NC(=O)c1nc(-c2cn(Cc3ccc(F)cc3)nn2)no1 | 8.42 µM
O=C(Cn1cnc2c(cnn2-c2ccc(Cl)cc2)c1=O)NCc1ccccc1Cl | 3.43 µM
COc1ccccc1-c1ccc(CN2[C@@H](c3ccccc3)C[C@@H]3NC(=O)CCC[C@H]32)cc1 | > 50 µM (inactive)
COc1ccccc1NC(=O)c1cc2c(C)nn(Cc3ccccc3)c2s1 | 29.9 µM
N#Cc1ccc(Cn2nnc(-c3cccc(Cl)c3)n2)cc1 | > 50 µM (inactive)
COc1ccc(NC(=O)C2Oc3ccc(C)cc3NC2=O)cc1Cl (stereo not given) | 14.5 µM
Cc1ccc2cccc(OCc3nnc(SCC(=O)c4ccc(Cl)cc4)n3C)c2n1 | 2.65 µM
CC(=O)Nc1ccc(S(=O)(=O)Nc2ccc(Nc3ccc(-n4cccn4)nn3)cc2)cc1 | 24.2 µM
Cc1ccc(C)c(Nc2cc(C)nc3nc(-c4ccco4)nn23)c1 | > 50 µM (inactive)
Cc1ccc2cc3c(nc2n1)CCN(Cc1ccc(F)cc1)C3 | > 50 µM (inactive)
COC(=O)c1ccc(C(=O)Nc2cc3ccccc3cc2NC(=O)c2ccc(C(=O)OC)cc2)cc1 | 0.68 µM
Cc1cc2c(cc1C)NC(CC(=O)Nc1ccc(O)cc1)C(=O)N2 (stereo not given) | 24.1 µM
COc1ccc(Cn2c(=O)[nH]c3cc(C(=O)NCCCN4CCN(c5cccc(Cl)c5)CC4)ccc3c2=O)cc1 | 3.03 µM
CC[C@H](C)C[C@H]1CC[C@](O)([C@](C)(O)C(=O)N[C@@H]2C(=O)N3NCCC[C@@H]3C(=O)N(O)[C@@H](C)C(=O)NCC(=O)N3NCCC[C@H]3C(=O)N(O)[C@H](C)C(=O)O[C@H]2C(C)C)O[C@@H]1C | 13.6 µM
O=c1c(S(=O)(=O)c2cc(F)cc(F)c2)c[nH]c2cc(Cl)ccc12 | 23.8 µM
COc1cc(OC)cc(-n2c(=O)c3sccc3n(CC(=O)Nc3ccc(C)cc3)c2=O)c1 | 10.1 µM
O=c1[nH]c2ccccc2cc1CN(Cc1ccco1)S(=O)(=O)c1ccc(F)cc1 | > 50 µM (inactive)
CNC(=O)c1cc2nc(N(C)C)n(-c3ccccc3)c2s1 | > 50 µM (inactive)
COc1ccc(OC)c(-c2cc(C(=O)Nc3c(C)nn(Cc4ccccc4)c3C)no2)c1 | > 50 µM (inactive)
C/C1=C/CC(O)/C=C/C(C)C(O)C(C)/C=C(\C)C(=O)c2c(O)c(C)cc3c2C(=O)C(Cl)=C(NC(=O)\C=C/C=C/C=C\C(C)C(O)CC1=O)C3=O (stereo not given) | 20.2 µM
COc1ccc(Cl)cc1NC(=O)c1cc(-c2ccccn2)n[nH]1 | 0.202 µM
COc1cccc(N2CCN(C(=O)Nc3ccc4c(c3)NC(=O)CO4)CC2)c1 | 26.6 µM

Compound | IC50
O=C(Cn1c(=O)n(CCC(=O)N2CC=C(c3ccccc3)CC2)c(=O)c2ccccc21)NCc1ccco1 | 31.2 µM
O=S(=O)(c1cccc2cccnc12)N(CCc1ccccc1)C1CCN(CCc2ccc(Cl)cc2)CC1 | > 50 µM (inactive)
O=c1c(OC2O[C@H](CO)[C@H](O)[C@H](O)[C@H]2O)c(-c2ccc(O)cc2)oc2cc(O)cc(O)c12 (stereo not given in full) | 46.8 µM
O=C(CSc1nnnn1-c1ccccc1)Nc1ccccc1 | 36.8 µM
Cc1ccc(Cl)cc1NC(=O)c1cc(-c2ccccn2)n[nH]1 | 7.13 µM
CCN(CC)c1nc(F)c2c(c1F)S(=O)(=O)CCN2Cc1ccccc1 | > 50 µM (inactive)
COc1c(O)c(O)c2c(=O)cc(-c3ccc(O)cc3)oc2c1OC | 38.5 µM
COCCCNC(=O)c1ccc(Cn2c(=O)c3ccccc3n(CC(=O)Nc3ccc(OC)cc3)c2=O)cc1 | 29.7 µM
COCCn1c(=O)[nH]c2cc(C(=O)NCCNc3ccc([N+](=O)[O-])cc3C#N)ccc2c1=O | 3.57 µM
Cc1cc(C(F)(F)F)n2nc(C3CCN(C(=O)c4cnn(C)c4C)C3)cc2n1 (stereo not given) | 30.2 µM
Fc1ccc(CSc2nnc(-c3ccccn3)n2Cc2ccco2)cc1 | > 50 µM (inactive)
O=C(NCc1ccc2c(c1)OCO2)c1nn(C23CC4CC(CC(C4)C2)C3)cc1[N+](=O)[O-] | > 50 µM (inactive)
COc1ccc(CN=C2NS(=O)(=O)C(c3ccc(F)cc3)=C2C)cc1OC | 18.8 µM
COc1ccc(CC(NC(C)=O)C(=O)NC2CCN(c3c(Cc4ccccc4)c(C)nc4ncnn34)CC2)cc1OC (stereo not given) | > 50 µM (inactive)
COc1ccc(NC(=O)C2CC(=O)Nc3cc(-c4ccccc4)nn32)cc1 (stereo not given) | 22.9 µM
O=C(CN1CCCCC1)Nc1nnc(-c2ccc([N+](=O)[O-])cc2)s1 | 19.9 µM
CN1CCN(C(=O)c2ccn(-c3ccc4ccc(-c5cnn(C)c5)cn34)n2)CC1 | > 50 µM (inactive)
CC(C)(C)n1ncc2c(=O)n(Cc3cccc([N+](=O)[O-])c3)cnc21 | > 50 µM (inactive)
COc1ccc(Nc2nc3c(S(=O)(=O)c4ccc(C)cc4)nnn3c3ccsc23)c(OC)c1 | 2.62 µM
O=C1C(O)=C(c2ccc(O)cc2)C(=O)C(O)=C1c1ccccc1 | 6.1 µM
O=c1c(NCCCN2CCCC2)nc2ccncc2n1Cc1ccccc1 | 29.3 µM
COc1ccc(OC)c2c(C)cc(N3CCN(S(=O)(=O)c4ccc5c(c4)CCCN5S(C)(=O)=O)CC3)nc12 | 9.83 µM
